We go through four compounds from article PMC5382548 (Scientific Reports, 2015).

“Also recorded” adds a separate entry of the source.

The subject of assay [1] is human KRAS promoter (pGL-Ras0.5, pGL-Ras2.0). Briefly: KRAS promoter luciferase reporter assay in HEK293T cells. Format: cell-based. Conditions: equitoxic (IC50) concentrations, 72 h, vs DMSO. The source says: A first evaluation of the compounds' ability to down-regulate KRAS gene transcription by directly acting on the KRAS promoter was undertaken with a luciferase reporter assay. For this purpose two different size wild-type promoter constructs were used, containing the G4 sequence and cloned into the Firefly luciferase pGL3 Basic backbone (pGL-Ras0.5, PGL-Ras2.0). These and pGL3 Basic empty (Firefly Luciferase negative control/no promoter) were co-transfected into HEK293T cells together with Renilla luciferase pRL-TK (transfection efficiency normalization) as a G4 negative control. […] In general, the data in Figure 5 clearly portraits a reduction of luciferase activity by ~25–50% when compared to Renilla basal levels induced by all G4 ligands.
Figure 5 KRAS promoter activity is decreased following exposure of HEK293T cells lines to equitoxic (IC50) concentrations of compounds TMPyP4, 2d, 3d and 3e. Cells were co-transfected with pGL3-basic vector (empty vector control), or with KRAS promoter luciferase reporter construct PGL-Ras0.5, or PGL-Ras2.0, together with pRL-TK. Twenty-four h later, cells were replated in 96 wells plates, at 5000 cells per well. […] KRAS promoter activity levels were evaluated by Dual-Luciferase assay 72 h after compound exposure. Results are expressed as the luciferase signal ratio of pGL-Ras2.0 or pGL-Ras0.5 to pGL3-basic vector transfected cells, after normalization with Renilla Luciferase. The results are expressed as the mean ± SEM fold-change compared to DMSO exposure, from three independent experiments. *p < 0.05 and § p < 0.01 from DMSO vehicle control.
HEK293T cells were seeded in 35 mm plates at 150000 cells per well. 24 h later, cells were transiently co-transfected with pGL3-basic vector (empty vector control), or with KRAS promoter luciferase reporter construct pGL-Ras0.5, or pGL-Ras2.0, together with pRL-TK (Promega, Madison, WI, USA). KRAS promotor luciferase reporters respectively harbour 500 bp and 2000 bp of the human KRAS promotor region, and were previously described elsewhere. pGL3 Basic empty was used as negative control, and pRL-TK simultaneously for transfection efficiency normalization and as a G4 negative control. […] Transfections were performed using Lipofectamine 2000 (Invitrogen), according to the manufacturer's instructions. […] Finally, 72 h after compound incubation, cells were lysed and firefly and Renilla luciferase activities were measured using the Dual-Luciferase®Reporter Assay System (Promega). KRAS promoter activity levels were expressed as the luciferase signal ratio of pGL-Ras2.0 or pGL-Ras0.5 to pGL3-basic vector transfected cells, after normalization with Renilla Luciferase. The results are expressed as the mean ± SEM fold-change compared to DMSO exposure, from three independent experiments.

The test system of assay [2] is KRAS mRNA in HCT116 cells. Briefly: KRAS mRNA steady-state levels, Taqman real-time RT-PCR, HCT116. It is filed as cell-based, human. Conditions: 72 h; for Reduction of KRAS mRNA steady-state levels, HCT116: equitoxic (IC50) concentrations (TMPyP4 12 μM). On the procedure:
The effects of compounds on KRAS transcription in colon cancer cells (HCT116 and SW620) were evaluated by quantifying KRAS mRNA steady-state levels using Taqman real-time RT-PCR.
(a) KRAS mRNA steady-state expression was evaluated by Taqman Real-time RT-PCR using specific Taqman Assays for KRAS and β-Actin for normalization. KRAS mRNA steady-state expression levels were calculated by the ΔΔCt method, using DMSO (vehicle control) for calibration; and (b) KRAS protein steady-state expression evaluated by immunoblot relative to control (DMSO vehicle) Results are expressed as mean ± SEM of at least three independent experiments; *p < 0.05 and §p < 0.01 from DMSO (vehicle control).
HCT116, SW620 and HEK293 T cells were seeded in 35 mm plates at 150000 cells per well. […] After 72 h of compound exposure, cells were collected and processed for total RNA extraction using TRIZOL reagent (Invitrogen) according to the manufacturer's instructions. Samples were homogenized in TRIZOL reagent using a motor-driven Bio-vortexer (No1083; Biospec Products, Bartlesfield, OK) and disposable RNAse/DNAse free sterile pestles (Thermo Fisher Scientific, Inc., Chicago, IL). […] Evaluation of steady-state expression of KRAS mRNA was performed by Taqman Real-time PCR assay, detailed in Supplementary Information.
Total RNA extraction and Taqman real-time RT-PCR
Taqman Real-time PCR reactions were performed using 1.5 µg of total RNA, using High Capacity RNA to cDNA kit, according to the manufacturer`s instruction. Next, Real-time PCR reactions were performed using Taqman Universal Master Mix II, no UNG, and primers specific to human KRAS (assay ID Hs00000174_rf, # 4465807) primers and to Human β- Actin (ACTB # 401846) for normalization to endogenous control (both from Applied Biosystems Inc). Triplicate reactions were run per sample. Data was collected with 7300 System Sequence Detection Software, version 1.2.3 (Applied Biosystems Inc). The comparative threshold cycle method was used to calculate the amplification factor, where the threshold cycle (Ct) is defined as the cycle number at which the fluorescence passes the fixed threshold intensity level. KRAS expression levels in different samples were calculated on the basis of ΔΔCt method. For each cell line, vehicle control (DMSO) was used as the calibrator. The n-fold change in KRAS expression was obtained using the formula: 2-ΔΔCt. […]
SW620 and HEK293 T cells were seeded in 24-well plates 50,000cells/well. Twenty-four hours later, cells were exposed to compounds for 72 h. After treatment, cell culture supernatants were collected and adherent cells were detached with TrypLE (Invitrogen).
Next, detached cells were pooled with cell culture supernatants and centrifuged for 5 min (650 g). […]

On to `CCN(CC)CCCNc1ccc2c(c1)c1[nH]c3ccccc3c1c[n+]2C` [2d], for which the “Reduction of KRAS promoter (luciferase) activity” value (“Reduction of KRAS promoter” below) in assay [1] is given as “up to 50%”. Also, the “KRAS mRNA levels reduced to (% remaining)” value in assay [2] (IC50 concentration, cell line not given) is ~ 10%. The “Reduction of KRAS mRNA steady-state levels, HCT116” value (shortened to “Reduction … HCT116”) in assay [2] came to 90%.

Consider `CCN(CC)CCCNc1ccc2[nH]c3c(c[n+](C)c4ccc(NCCCN(CC)CC)cc34)c2c1.[Cl-]` [3d], for which, in assay [1], the “Reduction of KRAS promoter” value is “up to 50%”. The “Reduction … HCT116” value in assay [2] came to 25%.

As to `C[n+]1ccc(-c2c3nc(c(-c4cc[n+](C)cc4)c4ccc([nH]4)c(-c4cc[n+](C)cc4)c4ccc([nH]4)c(-c4cc[n+](C)cc4)c4nc2C=C4)C=C3)cc1` [TMPyP4, reference compound], the “Reduction of KRAS promoter” value in assay [1] amounted to 25%. Further, the “Reduction … HCT116” value in assay [2] is reported as “no ability to repress KRAS transcription; also recorded: did not inhibit KRAS transcription”.

On to `CCN(CC)CCCNc1ccc2c(c1)[nH]c1c2c[n+](C)c2ccc(NCCCN(CC)CC)cc12.[Cl-]` [3e], for which, in assay [1], the “Reduction of KRAS promoter” value was “up to 50%”.
